pIC50: −log10 of the molar value. Where two headings read alike, the source gives them in different places.
Columns and labels:
tubulin = assay: Taxol-induced tubulin polymerization, turbidity at 350 nm; format: biochemical, calf; conditions: taxol-induced assembly, MES buffer pH 6.8, 37C; average of three independent measurements; read-out: Anti-tubulin effect, turbidity at 350 nm, IC50
Source text: (§1) The numerous antimitotic drugs already developed and therapeu- tically used for a large number of pathologies belong to different classes based on their chemical structure and other distinctive features. Antimitotic drugs usually target the tubulin/microtubule network of the cytoskeleton that is formed by assembly of cyto- plasmic tubulin dimers. The stability of the different microtubular structures varies considerably; some of their functions depend on their lability. The lability is augmented by the extreme sensitivity to various drugs. Several synthetic and natural compounds interact specifically with tubulin and/or microtubule, fundamentally destroying its dynamic character and leading to cell death. […] Because of their extensive clinical use, it is important to synthesize additional agents having at least the same biological activity. […] Nevertheless, it is unclear yet how the anti-calmodulin activity of these drugs is related to their desired and undesired pharmacological effects. […] The synthesis of the KAR derivatives are presented. […] Taxol, GTP and trifluoperazine were purchased from Sigma. All organic reagents for synthesis of the new compounds were obtained from Aldrich and were of the highest grade. All other chemicals were reagent grade commercial preparations. […] Tubulin was stored in 1 M sucrose, 10 mM sodium phosphate buffer, 0.5 mM magnesium chloride and 0.1 mM GTP, pH 7.0, at -80C and dialysed against the appropriate buffer before use. […] PFK, aldolase and glycerol-3-phosphate dehydrogenase- triosephosphate isomerase purified from rabbit skeletal muscle were purchased in ammonium sulphate suspensions from Sigma or Boehringer. The enzyme suspensions were centrifuged at 10 000g for 5 min. The pellets were suspended in the appropriate buffer, then the enzymes were gel filtered or dialysed in the same buffer to remove ammonium sulphate. […] (Figure 1B; R1 , CH3; R2 , CH2 CH2 Cl). […] After 2 h incubation at room temperature, 200 ml dried toluene was added to the reaction mixture. […] The mixture was stirred for 30 min. After separation of the organic phase, it was washed with water (3 x 30 ml) and dried with potassium sulphate and evaporated on a water bath of 35-40C at 20-27 hPa. The resulting material was chromatographed on silica gel (500 g, bead size of 0.040- 0.063 mm) column (30 mm x 500 mm) using ethyl acetate/ethanol (9:1) mixture as eluent. […] The mixture was kept for 4 h at room temperature and then evaporated on a water bath at 40C under a vacuum of 80 hPa to a final volume of 5-6 ml. […] (Figure 1B, R1 , CHO; R2 , CH2 CH2 Cl). […] Synthesis of KAR-4 [3-allyl-2,4-dioxo-3,5-spiro-oxazolidino- 4-deacetoxy-vinblastine] (Figure 1B; R1 , CH3; R2 , CH2 CH=CH2 ). […] NMR measurements were carried out on a Varian Unity plus-500 instrument (500 MHz for 1H and 125 MHz for 13C) in DMSO. Chemical shifts were determined relative to dTMS = 0.00 p.p.m. 1H and 13C signal assignments were verified by a concerted use of two-dimensional 1H-1H and 1H-13C shift correlation methods (DQFCOSY, HSQC, HMBC) and NOESY experiments. The gradient-enhanced DQFCOSY, HSQC, HMBC and NOESY experiments were recorded by using the standard spectrometer software package. A mixing time of tmix = 0.5 s was used for the NOESY experiments.

[1] = system: tubulin/microtubule, PFK-bundled microtubules; assay: Tubulin polymerization with or without PFK (bundled vs single microtubules): turbidity and pelleting with SDS-PAGE; format: biochemical, calf; conditions: 10 M tubulin, 2 M drug, 20 µM taxol, SDS-PAGE of supernatant and pellet
Source text: The numerous antimitotic drugs already developed and therapeu- tically used for a large number of pathologies belong to different classes based on their chemical structure and other distinctive features. Antimitotic drugs usually target the tubulin/microtubule network of the cytoskeleton that is formed by assembly of cyto- plasmic tubulin dimers. The stability of the different microtubular structures varies considerably; some of their functions depend on their lability. The lability is augmented by the extreme sensitivity to various drugs. Several synthetic and natural compounds interact specifically with tubulin and/or microtubule, fundamentally destroying its dynamic character and leading to cell death. […] Because of their extensive clinical use, it is important to synthesize additional agents having at least the same biological activity. […] Nevertheless, it is unclear yet how the anti-calmodulin activity of these drugs is related to their desired and undesired pharmacological effects. […] The synthesis of the KAR derivatives are presented. […] Taxol, GTP and trifluoperazine were purchased from Sigma. All organic reagents for synthesis of the new compounds were obtained from Aldrich and were of the highest grade. All other chemicals were reagent grade commercial preparations. […] Tubulin was stored in 1 M sucrose, 10 mM sodium phosphate buffer, 0.5 mM magnesium chloride and 0.1 mM GTP, pH 7.0, at -80C and dialysed against the appropriate buffer before use. […] PFK, aldolase and glycerol-3-phosphate dehydrogenase- triosephosphate isomerase purified from rabbit skeletal muscle were purchased in ammonium sulphate suspensions from Sigma or Boehringer. The enzyme suspensions were centrifuged at 10 000g for 5 min. The pellets were suspended in the appropriate buffer, then the enzymes were gel filtered or dialysed in the same buffer to remove ammonium sulphate. […] (Figure 1B; R1 , CH3; R2 , CH2 CH2 Cl). […] After 2 h incubation at room temperature, 200 ml dried toluene was added to the reaction mixture. […] The mixture was stirred for 30 min. After separation of the organic phase, it was washed with water (3 x 30 ml) and dried with potassium sulphate and evaporated on a water bath of 35-40C at 20-27 hPa. The resulting material was chromatographed on silica gel (500 g, bead size of 0.040- 0.063 mm) column (30 mm x 500 mm) using ethyl acetate/ethanol (9:1) mixture as eluent. […] The mixture was kept for 4 h at room temperature and then evaporated on a water bath at 40C under a vacuum of 80 hPa to a final volume of 5-6 ml. […] (Figure 1B, R1 , CHO; R2 , CH2 CH2 Cl). […] Synthesis of KAR-4 [3-allyl-2,4-dioxo-3,5-spiro-oxazolidino- 4-deacetoxy-vinblastine] (Figure 1B; R1 , CH3; R2 , CH2 CH=CH2 ). […] NMR measurements were carried out on a Varian Unity plus-500 instrument (500 MHz for 1H and 125 MHz for 13C) in DMSO. Chemical shifts were determined relative to dTMS = 0.00 p.p.m. 1H and 13C signal assignments were verified by a concerted use of two-dimensional 1H-1H and 1H-13C shift correlation methods (DQFCOSY, HSQC, HMBC) and NOESY experiments. The gradient-enhanced DQFCOSY, HSQC, HMBC and NOESY experiments were recorded by using the standard spectrometer software package. A mixing time of tmix = 0.5 s was used for the NOESY experiments. […] Mass spectrum was recorded on a Kratos MS 80 instrument using FAB.

[2] = system: Human neuroblastoma cell line (SH-SY5Y); assay: Microculture tetrazolium assay (MTA), cytotoxicity; conditions: Homo sapiens, 96 h
Source text: as §1

calmodulin = target: T1, calmodulin (Bos taurus, UniProt P62157); set-up: method as in Molnar et al (1995); conditions: ref Molnar et al (1995); cited from earlier work
T1 construct: Calmodulin from bovine brain was purified to homogeneity using Phenyl-Sepharose (Pharmacia) chromatography; from tissue; host or cells: bovine brain

mouse leukaemia P388 = system: mouse leukaemia P388; set-up: method as in Orosz et al, 1997a; conditions: P388, 0.2 mg kg-1, eightfold treatment; ref Orosz et al, 1997a; cited from earlier work

CC[C@]1(O)C[C@@H]2CN(CCc3c([nH]c4ccccc34)[C@@](C(=O)OC)(c3cc4c(cc3OC)N(C)[C@H]3[C@@](O)(C(=O)OC)[C@H](OC(C)=O)[C@]5(CC)C=CCN6CC[C@]43[C@@H]65)C2)C1 [Vinblastine, vinblastine, reference compound]
tubulin partition in pelleting experiment, without PFK ([1]; no PFK): practically all tubulin appears in the super- natants
tubulin partition in pelleting experiment, with PFK (bundled microtubules) ([1]; 2 M PFK): significant amount of tubulins were assembled into microtubules
pIC50 ([2]; read-out: Cytotoxicity MTA IC50): 8.30
IC50 ([2]; read-out: Cytotoxicity MTA IC50 (M)): 5e-09 M
Anti-calmodulin activity: Efficiency (%) (calmodulin): 61%
T/C (mouse leukaemia P388): 199%

Reference: article PMC2362735, “New semisynthetic vinca alkaloids: chemical, biochemical and cellular studies” (British Journal of Cancer, 1999)
